Results taken from US4966889A, “Treatment of inflammatory articular diseases” (Industria Farmaceutica Serono SpA, priority 1986, dated 1990).
Entries after “also recorded” stand apart in the source; their conditions may differ.

Tests used:
[1] = tested on: patients affected by polyarticular RA; assay: Evaluation of efficacy of therapies in course prior to treatment; assay type: in vivo, human; set-up: key to Efficacy of present therapy: Nil; Scarce; Good; Excellent; conditions: single cases
Source text: (§1) With reference to each of the clinical cases taken into consideration, supplied below are the particulars relevant to diagnosis, evaluation of efficacy of therapies in course prior to treatment (Nil, Scarce, Good, Excellent), and finally the clinical observations after treatment with Somatostatin (SS) or with Placebo (PL).

[2] = tested on: patients affected by polyarticular RA (knee joint); assay: Double-blind trial versus placebo: clinical observations and side effects; assay type: in vivo, human; conditions: at the moment of administration or in the following days; 750 micrograms into knee joint
Method: Clinical efficacy of Somatostatin was verified by means of a double-blind trial versus placebo.
17 patients affected by polyarticular RA were selected for the trial. Each patient was informed about the experimental nature of the treatment. The articular site chosen for the study was the knee.
In accordance with the double-blind procedure (Somatostatin versus placebo), 10 patients were treated with Somatostatin ("STILAMIN", 750 micrograms) injected inside the knee joint.
Clinical observations were carried out at time 0, each 10 minutes of the first hour, than at hourly intervals for 3 hours. A further evaluation was made after one week; during the period between the treatment and the evaluation on the seventh day, the patients filled out a table for selfevaluation. Parameters chosen were Ritchie's Index and Huskisson's Scale of Pain, evaluation of pain being made when walking, upon flexion and supine.
as §1

[3] = Piroxicam 20 mg together with 6-alpha-methylprednisolone (8 mg or 4 mg)
[4] = single drug in course prior to treatment

| Compound | Efficacy of present therapy [1, 4] | further results |
| --- | --- | --- |
| C[C@H]1C[C@@H]2[C@H]([C@@H](O)C[C@@]3(C)[C@H]2CC[C@]3(O)C(=O)CO)[C@@]2(C)C=CC(=O)C=C12 [6-alpha-methylprednisolone] | Scarce | Efficacy of present therapy [1, 3]: Scarce |
| O=C(O)Cc1ccccc1Nc1c(Cl)cccc1Cl [Diclofenac] | Scarce | – |
| CCN(CCO)CCCC(C)Nc1ccnc2cc(Cl)ccc12 (centres unmarked) [Hydroxychloroquine] | – | results of basic therapy (case history) ([1]; before the trial): scarce results; also recorded: Disease still in acute phase |
| CC(C(=O)O)c1cccc(C(=O)c2ccccc2)c1 (centres unmarked) [Ketoprofene] | Nil | – |
| COc1ccc2cc([C@H](C)C(=O)O)ccc2c1 [Naproxen] | Good | Efficacy of present therapy ([1]; single drug in course prior to treatment, listed as Naproxene): Good and Scarce |
| CN1C(C(=O)Nc2ccccn2)=C(O)c2ccccc2S1(=O)=O [Piroxicam] | Scarce | Efficacy of present therapy [1, 3]: Scarce |
| C[C@H](N)C(=O)NCC(=O)N[C@H]1CSSC[C@@H](C(=O)O)NC(=O)[C@H](CO)NC(=O)[C@H]([C@@H](C)O)NC(=O)[C@H](Cc2ccccc2)NC(=O)[C@H]([C@@H](C)O)NC(=O)[C@H](CCCCN)NC(=O)[C@H](Cc2c[nH]c3ccccc23)NC(=O)[C@H](Cc2ccccc2)NC(=O)[C@H](Cc2ccccc2)NC(=O)[C@H](CC(N)=O)NC(=O)[C@H](CCCCN)NC1=O [Somatostatin] | – | clinical side effects [2]: No verifiable clinical side effects |
| CC(C(=O)O)c1ccc(C(=O)c2ccccc2)s1 (centres unmarked) [Thiaprophenic Acid] | Nil and Scarce | – |
